Source: US8431580B2, “4-aminopyrimidine derivatives as histamine H4 receptor antagonists” (Palau Pharma, S.A., priority 2007, dated 2013)

How the values were obtained:
[1] = system: human eosinophils; test: Histamine-induced shape change assay (Gated Autofluorescence Forward Scatter assay, GAFS) in human eosinophils; format: cell-based; conditions: Eosinophil, stimulated with 300 nM histamine
Method: Histamine-induced Shape Change Assay (Gated Autofluorescence Forward Scatter Assay, GAFS) in Human Eosinophils
In this assay the shape change induced by histamine in human eosinophils is determined by flow cytometry, detected as an increase in the size of the cells (forward scatter, FSC).
Polymorphonuclear leucocytes (PMNL, fraction containing neutrophils and eosinophils) were prepared from whole blood of human healthy volunteers. Briefly, erythrocytes were separated by sedimentation in 1.2% Dextran (SIGMA), and the leucocyte-rich fraction (PMNL) was isolated from the top layer by centrifugation at 450 g for 20 min in the presence of Ficoll-Paque® (Biochrom). PMNLs were resuspended in PBS buffer at a concentration of 1.1×10^6 cells/ml/tube and were pretreated with different concentrations of test compounds (dissolved in PBS) for 30 min at 37° C. and then stimulated with 300 nM histamine (Fluka) for 5 min. Finally, paraformaldehyde (1% final concentration in PBS) was added to terminate the reaction and maintain cell shape. Cell shape change was analyzed by flow cytometry (FACS Calibur, BD Biosystems). Eosinophils in PMNL were gated based on their higher autofluorescence relative to that of neutrophils (fluorescence channel FL2). Cell shape change was monitored in forward scatter signals (FSC). Results are expressed as percentage inhibition of shape change induced by histamine for each concentration of test compound.

[2] = target: T1, human histamine H4 receptor (Homo sapiens, UniProt Q9H3N8); test: Competitive binding assay of [3H]-histamine to the human histamine H4 receptor; conditions: 10 nM [3H]-histamine, CHO membrane extract; for inhibition at 1 µM: at a concentration of 1 μM
T1 construct: purchased Euroscreen/Perkin-Elmer
Method: Competitive Binding Assay of [^3H]-histamine to the Human Histamine H4 Receptor
To perform the binding assay, membrane extracts prepared from a stable CHO recombinant cell line expressing the human histamine H4 receptor (Euroscreen/Perkin-Elmer) were used.
The compounds to be tested were incubated at the desired concentration in duplicate with 10 nM [^3H]-histamine and 15 μg membrane extract in a total volume of 250 μL of 50 mM Tris-HCl, pH 7.4, 1.25 mM EDTA for 60 minutes at 25° C. Non-specific binding was defined in the presence of 100 μM of unlabelled histamine. The reaction was stopped by filtration using a vacuum collector (Multiscreen Millipore) in 96-well plates (MultiScreen HTS Millipore) that had been previously soaked in 0.5% polyethylenimine for 2 hours at 0° C. The plates were subsequently washed with 50 mM Tris (pH 7.4), 1.25 mM EDTA at 0° C., and the filters were dried for 1 hour at 50-60° C., before adding the scintillation liquid in order to determine bound radioactivity by means of a betaplate scintillation counter.

Row | inhibition at 10 µM [2] [%] | inhibition at 1 µM [2] [%] | Structure (SMILES) | inhibition at 1 µM [1] [%]
1 | > 50 | – | CNC1(C)CN(c2cc(N)nc(CC(C)C)n2)C1 [Example 15, 2-Isobutyl-6-(3-methyl-3-(methylamino)azetidin-1-yl)pyrimidin-4-amine] | > 50
2 | > 50 | – | CC(C)Cc1nc(N)cc(N2CC[C@@H](N)C2)n1 [Example 16, 6-((3R)-3-aminopyrrolidin-1-yl)-2-isobutylpyrimidin-4-amine] | –
3 | > 50 | – | CNC1CN(c2cc(N)nc(C3CCC3)n2)C1 [Example 17, 2-Cyclobutyl-6-(3-(methylamino)azetidin-1-yl)pyrimidin-4-amine] | > 50
4 | > 50 | – | CN[C@@H]1CCN(c2cc(N)nc(C3CCC3)n2)C1 [Example 18, 2-Cyclobutyl-6-((3R)-3-(methylamino)pyrrolidin-1-yl)pyrimidin-4-amine] | > 50
5 | > 50 | – | CNC1CN(c2cc(N)nc(C3CCCC3)n2)C1 [Example 19, 2-Cyclopentyl-6-(3-(methylamino)azetidin-1-yl)pyrimidin-4-amine] | > 50
6 | > 50 | – | CN[C@@H]1CCN(c2cc(N)nc(C3CCCC3)n2)C1 [Example 20, 2-Cyclopentyl-6-((3R)-3-(methylamino)pyrrolidin-1-yl)pyrimidin-4-amine] | > 50
7 | > 50 | – | CNC1CN(c2cc(N)nc(CC(C)(C)C)n2)C1 [Example 21, 2-(2,2-Dimethylpropyl)-6-(3-(methylamino)azetidin-1-yl)pyrimidin-4-amine] | > 50
8 | > 50 | – | CN[C@@H]1CCN(c2cc(N)nc(CC(C)(C)C)n2)C1 [Example 22, 2-(2,2-Dimethylpropyl)-6-((3R)-3-(methylamino)pyrrolidin-1-yl)pyrimidin-4-amine] | > 50
9 | > 50 | – | CN[C@@H]1CCN(c2cc(N)nc(CCC3CCCC3)n2)C1 [Example 23, 2-(2-Cyclopentylethyl)-6-((3R)-3-(methylamino)pyrrolidin-1-yl)pyrimidin-4-amine] | –

More lines, now with the values behind:

Row | Structure (SMILES) | inhibition at 10 µM [2] [%] | inhibition at 1 µM [2] [%] | inhibition at 1 µM [1] [%]
10 | CN[C@@H]1CCN(c2cc(N)nc(CC(C)C)n2)C1 [Example 1, 2-Isobutyl-6-((3R)-3-(methylamino)pyrrolidin-1-yl)pyrimidin-4-amine] | > 50 | – | > 50
11 | CN[C@@H]1CCN(c2cc(N)nc(CC3CCCCC3)n2)C1 [Example 2, 2-Cyclohexylmethyl-6-((3R)-3-(methylamino)pyrrolidin-1-yl)pyrimidin-4-amine] | > 50 | – | > 50
12 | CNC1CN(c2cc(N)nc(Cc3ccc(F)cc3)n2)C1 [Example 3, 2-(4-Fluorobenzyl)-6-(3-(methylamino)azetidin-1-yl)pyrimidin-4-amine] | > 50 | – | > 50
13 | CNC1CN(c2cc(N)nc(CC(C)C)n2)C1 [Example 4, 2-Isobutyl-6-(3-(methylamino)azetidin-1-yl)pyrimidin-4-amine] | > 50 | – | > 50
14 | CNC1CN(c2cc(N)nc(C3CC3)n2)C1 [Example 5, 2-Cyclopropyl-6-(3-(methylamino)azetidin-1-yl)pyrimidin-4-amine] | > 50 | – | –
15 | CNC1CN(c2cc(N)nc(C(C)(C)C)n2)C1 [Example 6, 2-tert-Butyl-6-(3-(methylamino)azetidin-1-yl)pyrimidin-4-amine] | > 50 | – | –
16 | CNC1CN(c2cc(N)nc(C(C)C)n2)C1 [Example 7, 2-Isopropyl-6-(3-(methylamino)azetidin-1-yl)pyrimidin-4-amine] | > 50 | – | –
17 | CNC1CN(c2cc(N)nc(COc3ccccc3)n2)C1 [Example 9, 6-(3-(methylamino)azetidin-1-yl)-2-(phenoxymethyl)pyrimidin-4-amine] | > 50 | – | –
18 | CN[C@@H]1CCN(c2cc(N)nc(C3CC3)n2)C1 [Example 10, 2-Cyclopropyl-6-((3R)-3-(methylamino)pyrrolidin-1-yl)pyrimidin-4-amine] | – | > 50 | –
19 | CN[C@@H]1CCN(c2cc(N)nc(C(C)(C)C)n2)C1 [Example 11, 2-tert-Butyl-6-((3R)-3-(methylamino)pyrrolidin-1-yl)pyrimidin-4-amine] | – | > 50 | > 50
20 | CN[C@@H]1CCN(c2cc(N)nc(C(C)C)n2)C1 [Example 12, 2-Isopropyl-6-((3R)-3-(methylamino)pyrrolidin-1-yl)pyrimidin-4-amine] | – | > 50 | > 50
21 | CN[C@@H]1CCN(c2cc(N)nc(COc3ccccc3)n2)C1 [Example 13, 6-((3R)-3-(methylamino)pyrrolidin-1-yl)-2-(phenoxymethyl)pyrimidin-4-amine] | > 50 | – | –
22 | CC(C)Cc1nc(N)cc(N2CC(N)C2)n1 [Example 14, 6-(3-Aminoazetidin-1-yl)-2-isobutylpyrimidin-4-amine] | > 50 | – | –
